Measured values published in ChEMBL document CHEMBL1201862, “PubChem BioAssay data set” (2004).
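Cells were grown in 96-well plates and exposed to each compound for 48 hours at five concentrations; endpoints were interpolated linearly between bracketing concentrations, or set to the highest concentration if not reached. The concentration for 50% growth inhibition is given as GI50.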 The source made the active and inactive calls. Rule as the data show it: active = GI50 up to about 1.1 µM and inactive = higher.

Legend:
Experiment in all cases: growth of human tumour cells (NCI), 48 h
786-0 = tested on: 786-0
A498 = tested on: A498
A549 = tested on: A549
ACHN = tested on: ACHN
BT-549 = tested on: BT-549
CAKI-1 = tested on: CAKI-1
CCRF-CEM = tested on: CCRF-CEM
COLO 205 = tested on: COLO 205
DU-145 = tested on: DU-145
EKVX = tested on: EKVX
HCC 2998 = tested on: HCC 2998
HCT-116 = tested on: HCT-116
HCT-15 = tested on: HCT-15
HL-60 = tested on: HL-60
HOP-62 = tested on: HOP-62
HOP-92 = tested on: HOP-92
HT-29 = tested on: HT-29
Hs-578T = tested on: Hs-578T
IGROV-1 = tested on: IGROV-1
K562 = tested on: K562
KM12 = tested on: KM12
LOX IMVI = tested on: LOX IMVI
M14 = tested on: M14
MCF7 = tested on: MCF7
MDA-MB-231 = tested on: MDA-MB-231
MDA-MB-435 = tested on: MDA-MB-435
MDA-N = tested on: MDA-N
MOLT-4 = tested on: MOLT-4
Malme-3M = tested on: Malme-3M
NCI-H226 = tested on: NCI-H226
NCI-H23 = tested on: NCI-H23
NCI-H460 = tested on: NCI-H460
NCI-H522 = tested on: NCI-H522
NCI/ADR-RES = tested on: NCI/ADR-RES
OVCAR-3 = tested on: OVCAR-3
OVCAR-4 = tested on: OVCAR-4
OVCAR-5 = tested on: OVCAR-5
OVCAR-8 = tested on: OVCAR-8
PC-3 = tested on: PC-3
RXF 393 = tested on: RXF 393
SF-268 = tested on: SF-268
SF-295 = tested on: SF-295
SF-539 = tested on: SF-539
SK-MEL-28 = tested on: SK-MEL-28
SK-MEL-2 = tested on: SK-MEL-2
SK-MEL-5 = tested on: SK-MEL-5
SK-OV-3 = tested on: SK-OV-3
SN12C = tested on: SN12C
SNB-19 = tested on: SNB-19
SNB-75 = tested on: SNB-75
SR = tested on: SR
SW-620 = tested on: SW-620
T47D = tested on: T47D
TK-10 = tested on: TK-10
U-251 = tested on: U-251
UACC-257 = tested on: UACC-257
UACC-62 = tested on: UACC-62
UO-31 = tested on: UO-31

COc1ccc2c(c1)Cc1cc(/N=[N+](\[O-])c3ccc4c(c3)Cc3cc(OC)ccc3-4)ccc1-2
GI50 (786-0): 33.2 µM (inactive) | GI50 (A498): 35.6 µM (inactive) | GI50 (A549): 43.1 µM (inactive) | GI50 (ACHN): 37.2 µM (inactive) | GI50 (BT-549): 76.7 µM (inactive) | GI50 (CAKI-1): 36.2 µM (inactive) | GI50 (CCRF-CEM): 12 µM (inactive) | GI50 (COLO 205): 15.3 µM (inactive) | GI50 (DU-145): > 100 µM (inactive) | GI50 (EKVX): 11.3 µM (inactive) | GI50 (HCC 2998): 14.2 µM (inactive) | GI50 (HCT-116): 60.7 µM (inactive) | GI50 (HCT-15): 95.7 µM | GI50 (HL-60): 7.48 µM (inactive) | GI50 (HOP-62): 43.9 µM (inactive) | GI50 (HOP-92): 44.1 µM (inactive) | GI50 (HT-29): 15.6 µM (inactive) | GI50 (Hs-578T): 54 µM (inactive) | GI50 (IGROV-1): 24 µM (inactive) | GI50 (K562): 38.8 µM (inactive) | GI50 (KM12): 29.4 µM (inactive) | GI50 (LOX IMVI): 33.1 µM (inactive) | GI50 (M14): 49.4 µM (inactive) | GI50 (MCF7): 19.7 µM (inactive) | GI50 (MDA-MB-231): 43 µM (inactive) | GI50 (MDA-MB-435): 27.1 µM (inactive) | GI50 (MDA-N): 29.7 µM (inactive) | GI50 (MOLT-4): 36.6 µM (inactive) | GI50 (Malme-3M): 38.9 µM (inactive) | GI50 (NCI-H226): 70.3 µM (inactive) | GI50 (NCI-H23): 65.6 µM (inactive) | GI50 (NCI-H460): 39.3 µM (inactive) | GI50 (NCI-H522): 4.78 µM (inactive) | GI50 (NCI/ADR-RES): 89.1 µM (inactive) | GI50 (OVCAR-3): 48.8 µM (inactive) | GI50 (OVCAR-4): 40 µM (inactive) | GI50 (OVCAR-5): > 100 µM (inactive) | GI50 (OVCAR-8): 38.6 µM (inactive) | GI50 (PC-3): 35.9 µM (inactive) | GI50 (RXF 393): 57.7 µM (inactive) | GI50 (SF-268): 82.8 µM (inactive) | GI50 (SF-295): 67.3 µM (inactive) | GI50 (SF-539): 10.2 µM (inactive) | GI50 (SK-MEL-28): 75.2 µM (inactive) | GI50 (SK-MEL-2): 60 µM (inactive) | GI50 (SK-MEL-5): 18.1 µM (inactive) | GI50 (SK-OV-3): > 100 µM (inactive) | GI50 (SN12C): > 100 µM (inactive) | GI50 (SNB-19): 51.8 µM (inactive) | GI50 (SNB-75): 39.2 µM (inactive) | GI50 (SR): 16.4 µM (inactive) | GI50 (SW-620): > 100 µM (inactive) | GI50 (T47D): 38.5 µM (inactive) | GI50 (TK-10): 64.3 µM (inactive) | GI50 (U-251): 16.9 µM (inactive) | GI50 (UACC-257): 12.9 µM (inactive) | GI50 (UACC-62): 24.5 µM (inactive) | GI50 (UO-31): 24.9 µM (inactive)

O=C1CC(c2ccccc2)NCCCCN2CC(CN1)C(C(O)c1ccccc1)C2=O (stereo not given)
GI50 (786-0): > 100 µM (inactive) | GI50 (A498): > 100 µM (inactive) | GI50 (A549): > 100 µM (inactive) | GI50 (ACHN): > 100 µM (inactive) | GI50 (BT-549): > 100 µM (inactive) | GI50 (CAKI-1): > 100 µM (inactive) | GI50 (CCRF-CEM): > 100 µM (inactive) | GI50 (COLO 205): > 100 µM (inactive) | GI50 (DU-145): > 100 µM (inactive) | GI50 (EKVX): > 100 µM (inactive) | GI50 (HCC 2998): > 100 µM (inactive) | GI50 (HCT-116): > 100 µM (inactive) | GI50 (HCT-15): > 100 µM | GI50 (HL-60): > 100 µM (inactive) | GI50 (HOP-62): > 100 µM (inactive) | GI50 (HOP-92): > 100 µM (inactive) | GI50 (HT-29): > 100 µM (inactive) | GI50 (Hs-578T): > 100 µM (inactive) | GI50 (IGROV-1): > 100 µM (inactive) | GI50 (KM12): > 100 µM (inactive) | GI50 (LOX IMVI): > 100 µM (inactive) | GI50 (M14): > 100 µM (inactive) | GI50 (MCF7): > 100 µM (inactive) | GI50 (MDA-MB-231): > 100 µM (inactive) | GI50 (MDA-MB-435): > 100 µM (inactive) | GI50 (MDA-N): > 100 µM (inactive) | GI50 (MOLT-4): > 100 µM (inactive) | GI50 (Malme-3M): > 100 µM (inactive) | GI50 (NCI-H226): > 100 µM (inactive) | GI50 (NCI-H23): > 100 µM (inactive) | GI50 (NCI-H460): > 100 µM (inactive) | GI50 (NCI-H522): > 100 µM (inactive) | GI50 (NCI/ADR-RES): > 100 µM (inactive) | GI50 (OVCAR-3): > 100 µM (inactive) | GI50 (OVCAR-4): > 100 µM (inactive) | GI50 (OVCAR-5): > 100 µM (inactive) | GI50 (OVCAR-8): > 100 µM (inactive) | GI50 (PC-3): > 100 µM (inactive) | GI50 (RXF 393): > 100 µM (inactive) | GI50 (SF-268): > 100 µM (inactive) | GI50 (SF-295): > 100 µM (inactive) | GI50 (SF-539): > 100 µM (inactive) | GI50 (SK-MEL-28): > 100 µM (inactive) | GI50 (SK-MEL-2): > 100 µM (inactive) | GI50 (SK-MEL-5): > 100 µM (inactive) | GI50 (SK-OV-3): > 100 µM (inactive) | GI50 (SN12C): > 100 µM (inactive) | GI50 (SNB-19): > 100 µM (inactive) | GI50 (SNB-75): 95.5 µM (inactive) | GI50 (SR): > 100 µM (inactive) | GI50 (SW-620): > 100 µM (inactive) | GI50 (T47D): > 100 µM (inactive) | GI50 (TK-10): > 100 µM (inactive) | GI50 (U-251): > 100 µM (inactive) | GI50 (UACC-257): > 100 µM (inactive) | GI50 (UACC-62): > 100 µM (inactive) | GI50 (UO-31): > 100 µM (inactive)
